The test system of data set [1] is thyroid hormone receptor (endogenous TRα and TRβ). The experiment in a line: cells. Details: species or system GH3-TRE-Luc (rat pituitary); GH3-TRE-Luc luciferase reporter transactivation, agonist mode, qHTS; RXR ligands can also activate indirectly. As to conditions: 24 h, read-out: TR_LUC_GH3_Agonist_AC50 (uM).
Data set [2] can be described thus: in vitro. As to conditions: rat, gh3-tre-luc cells, 1 nM T3 present. Details: species or system GH3-TRE-Luc (rat pituitary); CellTiter-Fluor viability run in parallel with antagonist mode (1 nM T3), loss of viability.
The subject of data set [3] is thyroid hormone receptor (endogenous TRα and TRβ). The experiment in a line: cells. Set-up: species or system GH3-TRE-Luc (rat pituitary); GH3-TRE-Luc luciferase reporter, antagonist mode against 1 nM T3, loss of signal, qHTS. As to conditions: 24 h, antagonist mode, 1 nM T3, read-out: AC50 (uM) modified / 1000.
Data set [4] has the same test system. Description: GH3-TRE-Antag-Followup confirmation (TOX21_TR_LUC_GH3_Antagonist_Followup, aeid 2227). In kind it is cell-based, rat. The conditions noted are these: Table S3, aeid 2227.
Data set [5] addresses T1, human TRβ ligand-binding domain (Homo sapiens, UniProt P10828).
T1 sequence (P10828 217-461 limits assumed): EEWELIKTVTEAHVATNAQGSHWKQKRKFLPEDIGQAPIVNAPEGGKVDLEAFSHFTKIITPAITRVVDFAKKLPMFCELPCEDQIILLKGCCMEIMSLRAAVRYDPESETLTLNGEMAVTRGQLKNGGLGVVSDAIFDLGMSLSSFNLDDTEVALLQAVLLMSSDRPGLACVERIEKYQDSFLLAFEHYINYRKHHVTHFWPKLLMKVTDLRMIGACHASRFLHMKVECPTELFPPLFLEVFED
The experiment in a line: TRb-bla antagonist mammalian one-hybrid beta-lactamase assay (TOX21_TRB_BLA_Antagonist_Followup, aeid 2238-2240). Type of data set: cell-based. The conditions noted are these: for Emax: read-out: resp_max (maximum response value).

Data set [6] can be described thus: in vitro. As to conditions: rat, gh3-tre-luc cells, AC50 (uM) modified / 1000.
Data set [7] has as its system thyroid hormone receptor (endogenous TRα and TRβ). The experiment in a line: cells. Set-up: species or system GH3-TRE-Luc (rat pituitary); GH3-TRE-Luc luciferase reporter, antagonist mode against 1 nM T3, loss of signal, qHTS. As to conditions: 24 h; antagonist mode, 1 nM T3; no GH3 cytotoxicity hit; read-out: Average AC50 (uM) GH3-TRE-Antag.
Data set [8] has as its system thyroid hormone receptor (TR). Description: Classification of TR actives across characterization assays (TR-Ag / RXR-Ag; TR model binary). As to conditions: for TR_Model_Binary_Agonist / TR_Model_Binary_Antagonist: candidate chemicals in Tables 2 and 3 define actives. Set-up: key to Categorization Code: FP, false positive. The gist of the method: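 Pharmaceuticals excluded; actives called from GH3-TRE qHTS (agonist, antagonist, viability) on 8,305 chemicals. Confirmation of 84 selected chemicals used GH3-TRE-Ag, mammalian one-hybrid TRβ and RXRα UAS-bla HEK 293T specificity screens, parental HEK293T viability, and two TR:coactivator recruitment assays.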

Data set [9] has as its system estrogen receptor. Set-up: method as in Judson et al. 2015. The conditions noted are these: model values ≥0.1 define actives; ref Judson et al. 2015; cited from earlier work.
Data set [10] relates to thyroid hormone receptor (endogenous TRα and TRβ). Description: GH3-TRE-Ag primary qHTS, luciferase reporter, agonist mode (TOX21_TR_LUC_GH3_Agonist, aeid 803). In kind it is cell-based, rat.
For data set [11] the test system is unchanged. The experiment in a line: GH3-TRE-Ag-Followup confirmation (TOX21_TR_LUC_GH3_Agonist_Followup, aeid 2226). In kind it is cell-based, rat.
In data set [12] the target is T2, human RXRα (Homo sapiens, UniProt P19793).
T2 construct: host or cells: GeneBLAzer UAS-bla HEK 293T
T2 sequence (P19793 227-458 limits assumed): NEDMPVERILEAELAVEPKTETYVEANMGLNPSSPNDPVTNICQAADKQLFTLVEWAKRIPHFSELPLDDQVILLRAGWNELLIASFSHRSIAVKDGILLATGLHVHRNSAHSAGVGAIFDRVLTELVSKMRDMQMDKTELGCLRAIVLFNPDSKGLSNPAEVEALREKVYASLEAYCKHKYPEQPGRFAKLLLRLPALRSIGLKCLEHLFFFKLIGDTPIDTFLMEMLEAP
Description: RXRa-bla-Ag mammalian one-hybrid beta-lactamase assay (TOX21_TR_RXR_BLA_Agonist_Followup_ratio, aeid 2253). In kind it is cell-based.

In data set [13] the target is T3, TRα ligand-binding domain (Homo sapiens, UniProt P10827).
T3 construct: the receptor LBDs expressed as glutathione S-transferase (GST) fusion proteins; purchased
T3 sequence (P10827 163-410 isoform P10827-2 limits assumed, other chains not shown): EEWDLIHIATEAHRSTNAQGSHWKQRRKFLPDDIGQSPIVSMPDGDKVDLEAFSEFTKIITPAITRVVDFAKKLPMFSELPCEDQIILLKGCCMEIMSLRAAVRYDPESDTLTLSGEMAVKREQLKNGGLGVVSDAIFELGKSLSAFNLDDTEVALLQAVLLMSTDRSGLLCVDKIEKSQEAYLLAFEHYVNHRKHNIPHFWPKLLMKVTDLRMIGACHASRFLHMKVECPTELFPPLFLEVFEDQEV
Description: TRa-coa LanthaScreen TR-FRET coactivator (SRC-2 peptide) recruitment, agonist (TOX21_TRA_COA_Agonist_Followup_ratio, aeid 2230). In kind it is biochemical.

Data set [14] deals with luciferase (Photinus pyralis, UniProt P08659). The experiment in a line: Luciferase inhibition.
Chain of luciferase (P08659 whole entry, species assumed): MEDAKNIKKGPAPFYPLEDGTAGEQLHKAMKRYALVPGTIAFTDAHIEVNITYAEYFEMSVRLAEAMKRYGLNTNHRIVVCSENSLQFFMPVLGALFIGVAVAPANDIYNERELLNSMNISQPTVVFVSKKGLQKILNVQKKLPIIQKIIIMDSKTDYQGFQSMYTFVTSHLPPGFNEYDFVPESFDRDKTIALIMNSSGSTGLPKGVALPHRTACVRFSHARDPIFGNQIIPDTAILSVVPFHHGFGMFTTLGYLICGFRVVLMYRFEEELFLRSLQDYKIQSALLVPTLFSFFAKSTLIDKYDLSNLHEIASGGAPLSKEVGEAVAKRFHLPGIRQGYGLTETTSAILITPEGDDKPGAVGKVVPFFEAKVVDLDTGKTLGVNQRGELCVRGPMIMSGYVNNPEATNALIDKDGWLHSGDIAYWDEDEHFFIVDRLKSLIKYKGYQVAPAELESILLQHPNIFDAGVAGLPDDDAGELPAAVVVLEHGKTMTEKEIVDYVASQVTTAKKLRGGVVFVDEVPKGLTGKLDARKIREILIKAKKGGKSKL
Data set [15] deals with GH3-TRE-Luc cell line. As to conditions: read-out: AC50 (uM) modified / 1000; Tox21_110001=Tox21_303049; viability, 1 nM T3 present, 24 h.
Data set [16] has as its target T1, human TRβ ligand-binding domain. Description: TRb-bla agonist mammalian one-hybrid beta-lactamase assay (TOX21_TRB_BLA_Agonist_Followup_ratio, aeid 2236). In kind it is cell-based. Set-up: host or cells: GeneBLAzer UAS-bla HEK 293T.
The target is the same in data set [17]. Description: TRb-coa LanthaScreen TR-FRET coactivator (SRC-2 peptide) recruitment, agonist (TOX21_TRB_COA_Agonist_Followup_ratio, aeid 2244). In kind it is biochemical. Details: host or cells: GeneBLAzer UAS-bla HEK 293T.
Data set [18] concerns GH3-TRE-Luc cell line. Description: GH3-TRE-Via cell viability, CellTiter-Fluor (TOX21_TR_LUC_GH3_Antagonist_viability, aeid 805).
The target in data set [19] is human retinoid X receptor alpha (RXRα) ligand-binding domain of the GeneBLAzer RXRα-UAS-bla HEK 293T one-hybrid assay (human).

The text below walks through data of PMC6792352, “Limited Chemical Structural Diversity Found to Modulate Thyroid Hormone Receptor in the Tox21 Chemical Library” (Environmental Health Perspectives, 2019).

With `C1=CCC=C1` [1,3-Cyclopentadiene], the AC50 in [1] and in [3] (Tox21_110001=Tox21_302134) was above 90 µM each time. The CC50 at 24 h in [2] (AC50 (uM) modified / 1000, Tox21_110001=Tox21_302134, viability) is above 90 µM.
As for `O=C(O)c1cccnc1Nc1cccc(C(F)(F)F)c1` [Niflumic acid], in [4], the “flag (text output for the level 6 method)” value was “Borderline inactive”, the hitc was determined as 0, the “modl_tp (top asymptote for the winning model)” value is recorded as 11.5978 percent_activity and the “resp_max (maximum response value)” value is given as 41.1677 percent_activity. Moreover, in data set [5] (Table S3, aeid 2238, ch1), the hitc came out at 0 and the Emax stood at 36.4%. Also, in data set [5] (Table S3, aeid 2239, ch2), the hitc stood at 0 and the Emax worked out at 24.1%. Further, in [5] (Table S3, aeid 2240, ratio), the hitc was found to be 0 and the Emax came out at 46.2%. Also, the CC50 at 24 h in data set [6] was above 50 µM.
Regarding `C[C@]12CC[C@@H]3c4ccc(OC(=O)N(CCCl)CCCl)cc4CC[C@H]3[C@@H]1CC[C@@H]2OP(=O)(O)O` [Estramustine phosphate sodium], the AC50 in [3] (Tox21_110001=Tox21_113375) is above 50 µM.
Turning to `CCOP(=S)(OCC)SCCl` [Chlormephos], the AC50 in data set [1] and in data set [3] (Tox21_110001=Tox21_300825) was above 90 µM throughout. The same molecule displayed a CC50 at 24 h in [2] (AC50 (uM) modified / 1000, Tox21_110001=Tox21_300825, viability) above 90 µM.
Regarding `CCOP(=O)(CN(CCO)CCO)OCC` [Diethyl((diethanolamino)methyl)phosphonate], the AC50 in [1] and in [3] (Tox21_110001=Tox21_301894) was above 90 µM in each case. Further, the CC50 at 24 h in [2] (AC50 (uM) modified / 1000, Tox21_110001=Tox21_301894, viability) was above 90 µM.
Turning to `CCOP(=S)(OCC)SCSc1cc(Cl)ccc1Cl` [Phenkapton], the AC50 in data set [1] and in [3] (Tox21_110001=Tox21_301741) was above 90 µM in each case. In addition, the CC50 at 24 h in data set [2] (AC50 (uM) modified / 1000, Tox21_110001=Tox21_301741, viability) is above 90 µM.
For the molecule `CCOP(=S)(Oc1ccc([N+](=O)[O-])cc1)c1ccccc1` (stereo not drawn) [EPN], the AC50 in data set [1] and in data set [3] (Tox21_110001=Tox21_300424) was above 90 µM throughout. In data set [2] (AC50 (uM) modified / 1000, Tox21_110001=Tox21_300424, viability), this molecule gave a CC50 at 24 h above 90 µM.
Turning to `C[C@]12CC[C@@H]3c4ccc(OC(=O)N(CCCl)CCCl)cc4CC[C@H]3[C@@H]1CC[C@@H]2OP(=O)(O)O` [Estramustine phosphate], the AC50 in data set [1] is above 50 µM; in data set [7], 42.9 µM. Besides, the CC50 at 24 h in data set [2] (AC50 (uM) modified / 1000, Tox21_110001=Tox21_113033, viability) was above 50 µM.
For the molecule `C=C1CCC2CC1C2(C)C` (single isomer, unassigned; (-)) [(-)-beta-Pinene], in data set [8], the TR_Model_Binary_Agonist is given as 0 and the TR_Model_Binary_Antagonist is 0. Moreover, in data set [9], the ER_Model_AUC_Agonist is recorded as 0 and the ER_Model_AUC_Antagonist is recorded as 0.
`ClCc1ccccc1` [Benzyl chloride]: the AC50 in [1] and in data set [3] (Tox21_110001=Tox21_200266) was above 90 µM throughout. The molecule also showed a CC50 at 24 h in data set [2] (AC50 (uM) modified / 1000, Tox21_110001=Tox21_200266, viability) above 90 µM.
In the case of `CCS(=O)(=O)CCSP(=O)(OC)OC` [Demeton-S-methylsulphon], the AC50 in data set [1] and in data set [3] (Tox21_110001=Tox21_301575) was above 90 µM in each case. The CC50 at 24 h in [2] (AC50 (uM) modified / 1000, Tox21_110001=Tox21_301575, viability) is above 90 µM.
For `CN(C)c1ccc(N=O)cc1` [N,N-dimethyl-4-nitrosoaniline], the “EMax (% of Control) gh3-tre-agonist” value in [10] was 31.0 % of Control. Also, the “GH3-TRE-Ag AC50 hitc” value in data set [10] (hit call from tcpl) stood at 1. Besides, the AC50 in data set [10] (read-out: GH3-TRE-Ag AC50) was 12.3 µM; in data set [11] (read-out: GH3-TRE-Ag-Followup AC50), 9.01 µM; in data set [12] it was above 92 µM; in [13] (agonist, read-out: TRa-coa AC50), above 92 µM; in data set [16] (agonist, read-out: TRb-bla AC50), above 92 µM; in data set [17] (agonist, read-out: TRb-coa AC50), above 92 µM. Further, in data set [18] (Rattus norvegicus, read-out: TR_LUC_GH3_Antagonist_viability AC50 (uM)), the AC50 came to 6.9 µM. Besides, the “EMax (% of Control) gh3-tre-agonist-followup-1_agonist” value in data set [11] is 47.7 % of Control. Also, the GH3-TRE-Ag-Followup hitc in data set [11] (hit call from tcpl) stood at 1. This molecule gave a tr-followup-rxr-bla-agonist-1 hitc in data set [12] (hit call from tcpl) of 0. Also, the Emax in [12] (read-out: EMax (% of Control) tr-followup-rxr-bla-agonist-1) was 1.8%; in data set [13] (read-out: EMax (% of Control) tra-coa-agonist-followup-1) it was -0.217%; in [16] (read-out: EMax (% of Control) trb-bla-agonist-followup-1) it was 8.4%; in data set [17] (read-out: EMax (% of Control) trb-coa-agonist-followup-1) it was -0.165%. The molecule also returned a TRa-coa hitc in data set [13] (hit call from tcpl, agonist) of 0. Further, the “Categorization Code” value in data set [8] (TR agonist characterization) was “FP”. Also, the “luciferase inhibition” value in [14] is reported as “luciferase inhibitor”. Also, the CC50 in [15] amounted to 8.37 µM. The molecule further had a CC50 at 24 h in data set [6] of 5.44 µM. For the same molecule, in [16] (hit call from tcpl, agonist), the TRb-bla hitc is 0. The same molecule gave a TRb-coa hitc in [17] (hit call from tcpl, agonist) of 0. In [18] (hit call from tcpl), this molecule came in with a TR_LUC_GH3_Antagonist_viability hitc of 1.
In turn, Sincalide (peptide) returned an RXRa-bla-Ag AC50 (β-lactamase reporter gene, RXRα-UAS-bla HEK 293T mammalian one-hybrid assay, agonist mode) in data set [19] of 10.5 µM.
In data set [8], (-)-alpha-Pinene yielded a TR_Model_Binary_Agonist of 0 and a TR_Model_Binary_Antagonist of 0. Also, in data set [9], the ER_Model_AUC_Agonist was 0 and the ER_Model_AUC_Antagonist is on record as 0.
